Patent publication US10448639B2, “Fungicidal pyrazoles” (FMC CORPORATION, priority 2009, dated 2019)
Marks after values point to notes of the source that are not given here.

Key:
Alternaria solani = assay: Test C: tomato early blight, preventive spray on tomato seedlings, visual disease rating; conditions: tomato early blight; for Test C rating (% disease control): 100 = 100% disease control, 0 = no control relative to controls
Septoria nodorum = assay: Test F: Septoria glume blotch, preventive spray on wheat seedlings, visual disease rating; conditions: Septoria glume blotch; for Test F rating (% disease control): 100 = 100% disease control, 0 = no control relative to controls
Septoria tritici = assay: Test G: wheat leaf blotch, preventive spray on wheat seedlings, visual disease rating; conditions: wheat leaf blotch; for Test G rating (% disease control): 100 = 100% disease control, 0 = no control relative to controls
[1] = test system: Erysiphe graminis f sp. tritici; assay: Test J: wheat powdery mildew, preventive spray on wheat seedlings, visual disease rating; conditions: wheat powdery mildew; for Test J rating (% disease control): 100 = 100% disease control, 0 = no control relative to controls
Botrytis cinerea = assay: Test B: tomato Botrytis, preventive spray on tomato seedlings, visual disease rating; conditions: tomato Botrytis; for Test B rating (% disease control): 100 = 100% disease control, 0 = no control relative to controls
[2] = test system: Puccinia recondita f. sp. tritici; assay: Test I: wheat leaf rust, preventive spray on wheat seedlings, visual disease rating; conditions: wheat leaf rust, preventive; for Test I rating (% disease control): 100 = 100% disease control, 0 = no control relative to controls
[3] = test system: Puccinia recondita f. sp. tritici; assay: Test H: wheat leaf rust, curative spray on inoculated wheat seedlings, visual disease rating; conditions: wheat leaf rust, curative; for Test H rating (% disease control): 100 = 100% disease control, 0 = no control relative to controls
[4] = rating marked with asterisk (*), meaning not given

| Structure (SMILES) | Test C rating (% disease control) (Alternaria solani) | Test F rating (% disease control) (Septoria nodorum) | Test G rating (% disease control) (Septoria tritici) | Test J rating (% disease control) [1] | Test B rating (% disease control) (Botrytis cinerea) | Test I rating (% disease control) [2] | Test H rating (% disease control) [3] | Test C rating (% disease control), marked * (Alternaria solani; [4]) | Test F rating (% disease control), marked * (Septoria nodorum; [4]) | Test G rating (% disease control), marked * (Septoria tritici; [4]) | Test J rating (% disease control), marked * [1, 4] | Test B rating (% disease control), marked * (Botrytis cinerea; [4]) | Test I rating (% disease control), marked * [2, 4] | Test H rating (% disease control), marked * [3, 4] |
| --- | --- | --- | --- | --- | --- | --- | --- | --- | --- | --- | --- | --- | --- | --- |
| COc1cc(F)c(Nc2c(-c3c(F)cccc3C(F)(F)F)c(C)nn2C)c(F)c1 [compound 263] | 98% | 0% | 100% | 100% | 100% | 98% | 0% |  |  |  |  |  |  |  |
| Cc1nn(C)c(Nc2ncc(F)cc2F)c1-c1c(F)cccc1C(F)(F)F [compound 264] | 98% | 0% | 92% | 98% | 100% | 99% | 0% |  |  |  |  |  |  |  |
| COc1ccc(-c2c(C)nn(C)c2Nc2ncc(Cl)cc2Cl)c(Cl)c1 [compound 267] | 79% | 60% | 100% | 93% | 100% | 96% | 0% |  |  |  |  |  |  |  |
| Cc1nn(C)c(Nc2cnc(Cl)nc2)c1-c1ccc(F)cc1Cl [compound 268] | 93% | 0% | 99% | 0% | 95% | 74% | 0% |  |  |  |  |  |  |  |
| Cc1ncc(Nc2c(-c3ccc(F)cc3Cl)c(C)nn2C)cn1 [compound 269] | 0% | 0% | 67% | 0% | 80% | 0% | 8% |  |  |  |  |  |  |  |
| Cc1nn(C)c(Nc2cncnc2)c1-c1ccc(F)cc1Cl [compound 270] | 86% | 0% | 91% | 81% | 92% | 0% | 8% |  |  |  |  |  |  |  |
| Cc1nn(C)c(Oc2c(F)cc(C#N)cc2F)c1-c1ccccc1Cl [compound 271] | 99% | 99% | 100% | 98% | 100% | 99% | 0% |  |  |  |  |  |  |  |
| Cc1nn(C)c(Oc2c(F)cc(C#N)cc2F)c1-c1ccccc1Br [compound 272] | 97% | 99% | 99% | 99% | 100% | 99% | 0% |  |  |  |  |  |  |  |
| Cc1nn(C)c(Oc2c(F)cc(C#N)cc2F)c1-c1cccc(Cl)c1Cl [compound 273] | 0% | 0% | 72% | 43% | 0% | 27% | 0% |  |  |  |  |  |  |  |
| Cc1nn(C)c(Oc2c(F)cc(C#N)cc2F)c1-c1cccc(F)c1F [compound 274] | 0% | 0% | 96% | 69% | 8% | 0% | 8% |  |  |  |  |  |  |  |
| Cc1nn(C)c(Oc2c(F)cc(C#N)cc2F)c1-c1cc(Cl)ccc1Cl [compound 275] | 46% | 0% | 99% | 99% | 97% | 97% | 8% |  |  |  |  |  |  |  |
| Cc1nn(C)c(Oc2c(F)cc(C#N)cc2F)c1-c1cc(F)ccc1Cl [compound 276] | 99% | 98% | 100% | 100% | 100% | 100% | 31% |  |  |  |  |  |  |  |
| COc1ccc(Cl)c(-c2c(C)nn(C)c2Oc2c(F)cc(C#N)cc2F)c1 [compound 277] | 0% | 0% | 100% | 98% | 100% | 96% | 0% |  |  |  |  |  |  |  |
| COc1ccc(F)c(-c2c(C)nn(C)c2Oc2c(F)cc(C#N)cc2F)c1 [compound 278] | 0% | 0% | 99% | 100% | 99% | 82% | 0% |  |  |  |  |  |  |  |
| Cc1nn(C)c(Nc2ncc(F)cc2F)c1-c1c(F)cccc1Cl [compound 279] | 99% | 0% | 100% | 100% | 100% | 98% | 8% |  |  |  |  |  |  |  |
| Cc1nn(C)c(Nc2ncc(F)cc2F)c1-c1ccccc1C(F)(F)F [compound 280] | 0% | 0% | 96% | 87% | 99% | 18% | 8% |  |  |  |  |  |  |  |
| COc1cccc(Nc2c(-c3c(F)cccc3F)c(C)nn2C)c1Cl [compound 289] | 0% | 0% | 99% | 97% | 100% | 96% | 0% |  |  |  |  |  |  |  |
| Cc1nn(C)c(Nc2c(F)cc(C#N)cc2F)c1-c1ccc(F)cc1F [compound 290] | 99% | 87% | 100% | 100% | 100% | 100% | 0% |  |  |  |  |  |  |  |
| Cc1nn(C)c(Nc2cc(C#N)ccc2Cl)c1-c1ccc(F)cc1F [compound 291] | 0% | 0% | 98% | 43% | 99% | 85% | 0% |  |  |  |  |  |  |  |
| Cc1nn(C)c(Nc2c(F)cc(F)cc2Cl)c1-c1c(F)cccc1Cl [compound 298] | 93% | 87% | 100% | 100% | 100% | 100% | 0% |  |  |  |  |  |  |  |
| Cc1nn(C)c(Nc2c(F)cc(F)cc2F)c1-c1c(F)cccc1F [compound 300] | 99% | 82% | 100% | 100% | 100% | 99% | 9% |  |  |  |  |  |  |  |
| Cc1nn(C)c(Nc2c(F)cc(C#N)cc2F)c1-c1c(F)cccc1F [compound 301] | 87% | 87% | 100% | 99% | 99% | 98% | 0% |  |  |  |  |  |  |  |
| Cc1nn(C)c(Nc2ccc(F)cc2F)c1-c1cccc(Cl)c1Cl [compound 302] |  |  |  |  |  |  |  | 0* % | 0* % | 99* % | 97* % | 99* % | 18* % | 0* % |
